Results published in PMC8961551, “Potential Anticancer Agents against Melanoma Cells Based on an As-Synthesized Thiosemicarbazide Derivative” (Biomolecules, 2022).
Read-outs that look alike come from different tables or passages of the source.

Experiments:
G-361 melanoma = assay: MTT cytotoxicity, G-361 melanoma; format: cell-based, human; details: for IC50: MTT test, 24 h treatment, G-361 melanoma; for cytotoxic to melanoma cells (MTT test): G-361, concentration range used
Experimental: (§1) Biological studies were performed on human malignant melanoma G-361 (ATCC CRL-1424) cell lines and human fibroblast BJ (ATCC® CRL-2522™) cell lines purchased from the American Type Culture Collection (ATCC, Manassas, VA USA). The G-361 cell lines were maintained in McCoy’s medium (Corning, NY, USA), and the fibroblast BJ cell line was cultured in EMEM (Corning, NY, USA). All media were supplemented with 10% heat-inactivated fetal bovine serum (PAN-Biotech, Aidenbach, Germany), 100 U/mL penicillin, 100 μg/mL streptomycin and 0.25 μg/mL amphotericin B (Sigma-Aldrich, St. Louis, MO, USA). Cultures were maintained at 37 °C in a humidified atmosphere of 95% air and 5% CO2. The experiments were performed using cells from passage 5 to 10.
(§2) The cytotoxicity of the new compounds was evaluated against both the G-361 and BJ cell lines. Cells were seeded into 96-well plates at a density of 3 × 10^4 cells/well and 2 × 10^4 cells/well. After 24 h of incubation, when 70–80% confluence was reached, the culture medium was removed and replaced with the fresh one containing the tested compounds in the concentration range of 10, 25, 50, 75, 100, 125 and 250 μM. Cells were cultured at 37 °C in the presence of 5% air with CO2 for another 24 h. The cytotoxicity of the test compounds was evaluated by the MTT colorimetric assay, based on the ability of live cells to convert yellow soluble tetrazolium salts (3-[4,5-dimethylthiazol-2-yl]- 2,5-diphenyltetrazolium bromide, MTT) to purple insoluble formazan by cellular dehydrogenase. After 24 h of incubation with solutions of the test compounds, 4 mg/mL MTT solution (Thermo Scientific, Waltham, MA, USA) was added to the cell cultures and incubation was continued for 4 h at 37 °C. The MTT medium was then removed, and the resulting crystals were dissolved in 200 µL of DMSO. The solution was measured for absorbance at 570 nm using a Power Wave xs spectrophotometric plate reader, BioTek Instruments (Winooski, VT, USA). The experiment was performed three times with three replicates for each concentration. IC50 values were determined using the AAT Bioquest IC50 calculator.

[1] = system: BJ normal fibroblast cell line; assay: MTT cytotoxicity, BJ normal fibroblasts; format: cell-based, human; details: MTT test, 24 h treatment, BJ normal fibroblasts, concentration range 10-250 µM, read-out: IC50 BJ
Experimental: as §1, §2

RP-HPLC lipophilicity = format: physicochemical; details: for logkW (chromatographic lipophilicity parameter): Kinetex C18, methanol-water 55-80%, extrapolated to 0% methanol; for -S HPLC (slope of linear equation): Table S3
Experimental: RP-HPLC analysis was performed using a Merck-Hitachi LaChrom Elite System (Merck, Darmstadt, Germany) with diode array detector L-2455, thermostat L-2300, pump L-2130 and autosampler L-2200 with a Kinetex C18 (5µm; 150 × 4,6mm) chromatographic column (Phenomenex, Torrance, USA) as the stationary phase. The mobile phase consisted of methanol (Merck, Darmstadt, Germany) and water (double-distilled), which was degassed by use of the built-in membrane degasser. Subsequently, 5 μL methanolic solution (0.1%; m/v) of the selected samples was applied to the chromatographic column by use of a Hitachi L-2200 autosampler (LaChrom Elite, Hitachi-Merck, Darmstadt, Germany). The analysis was performed with a flow rate of 0.7 mL min^−1 in isocratic mode using various concentrations of organic modifier (methanol) in binary polar mobile phases; percentages of methanol in water were 55–80% (%, v/v) and changed by 5% per step. Chromatograms were detected at 254 nm and the temperature of the column was 25 °C. All experiments were repeated in triplicate and the final results were taken to be the arithmetic means. Dead time was measured using uracil (Calbiochem. Merck, Darmstadt, Germany).

RP-TLC lipophilicity = format: physicochemical; details: for RMW (chromatographic lipophilicity parameter): RP-18 plates, methanol-water 65-95%, extrapolated to 0% methanol; for -S TLC (slope of linear equation): Table S3
Experimental: RP-TLC analysis was performed using RP-18 TLC silica gel 60 F254 plates (10 × 20 cm, Merck, Darmstadt, Germany) with a DS-II chromatographic horizontal chamber (CHROMDES, Lublin, Poland). The mobile phase consisted of methanol (POCH, Gliwice, Poland) and water with the following concentrations of methanol: 65–95% (%, v/v), with a concentration change every 5%. After drying, the spots were observed under a UV lamp with a wavelength of 254 nm.

| Molecule | IC50 (G-361 melanoma) | IC50 [1] | IC50 (G-361 melanoma; Homo sapiens) | IC50 ([1]; Homo sapiens, Fibroblast) | logkW (chromatographic lipophilicity parameter) (RP-HPLC lipophilicity) | -S HPLC (slope of linear equation) (RP-HPLC lipophilicity) | RMW (chromatographic lipophilicity parameter) (RP-TLC lipophilicity) | -S TLC (slope of linear equation) (RP-TLC lipophilicity) | cytotoxic to melanoma cells (MTT test) (G-361 melanoma) |
| --- | --- | --- | --- | --- | --- | --- | --- | --- | --- |
| 1-[[2-(2,4-Dichlorophenoxy)acetyl]amino]-3-[4-[[[2-(2,4-dichlorophenoxy)acetyl]amino]carbamoylamino]phenyl]thiourea [PK13] | > 250 µM | > 250 µM | – | – | – | – | – | – | – |
| O=C(COc1ccc(Cl)cc1Cl)NNC(=S)Nc1ccccc1F [PK1, 1-(2,4-dichlorophenoxy)acetyl-4-(2-fluorophenyl)thiosemicarbazide] | – | – | > 250 µM | > 250 µM | 3.4437 | 4.9238 | 2.6706 | 3.1923 | – |
| O=C(COc1ccc(Cl)cc1Cl)NNC(=S)Nc1ccc([N+](=O)[O-])cc1 [PK3, 1-(2,4-dichlorophenoxy)acetyl-4-(4-nitrophenyl)thiosemicarbazide] | > 250 µM | > 250 µM | – | – | 2.7667 | 3.8522 | 2.4459 | 2.9474 | – |
| O=C(COc1ccc(Cl)cc1Cl)NNC(=S)Nc1cccc(I)c1 [PK4, 1-(2,4-dichlorophenoxy)acetyl-4-(3-iodophenyl)thiosemicarbazide] | > 250 µM | > 250 µM | – | – | – | – | – | – | – |
| O=C(COc1ccc(Cl)cc1Cl)NNC(=S)Nc1ccc(F)cc1 [PK5, 1-(2,4-dichlorophenoxy)acetyl-4-(4-fluorophenyl)thiosemicarbazide] | > 250 µM | > 250 µM | – | – | 3.8993 | 5.5119 | 2.7612 | 3.4335 | – |
| O=C(COc1ccc(Cl)cc1Cl)NNC(=S)Nc1ccc(I)cc1 [PK7, 1-(2,4-dichlorophenoxy)acetyl-4-(4-iodophenyl)thiosemicarbazide] | – | – | 99 ± 4 µM | 216 ± 76 µM | 4.5363 | 5.9005 | 3.8527 | 4.4553 | cytotoxic |
| O=C(COc1ccc(Cl)cc1Cl)NNC(=S)Nc1cccc(Br)c1 [PK8, 1-(2,4-dichlorophenoxy)acetyl-4-(3-bromophenyl)thiosemicarbazide] | > 250 µM | > 250 µM | – | – | – | – | – | – | – |
| O=C(COc1ccc(Cl)cc1Cl)NNC(=S)Nc1cccc(F)c1 [PK10, 1-(2,4-dichlorophenoxy)acetyl-4-(3-fluorophenyl)thiosemicarbazide] | 218 ± 5.34 µM | 223 ± 7 µM | – | – | – | – | – | – | cytotoxic |
| O=C(COc1ccc(Cl)cc1Cl)NNC(=S)Nc1ccccc1Br [PK11, 1-(2,4-dichlorophenoxy)acetyl-4-(2-bromophenyl)thiosemicarbazide] | 162 ± 2 µM | 217 ± 64.3 µM | – | – | 3.93 | 5.3438 | 2.7832 | 3.3663 | cytotoxic |
| O=C(COc1ccc(Cl)cc1Cl)NNC(=S)Nc1ccc(Br)cc1 [PK12, 1-(2,4-dichlorophenoxy)acetyl-4-(4-bromophenyl)thiosemicarbazide] | – | 189 ± 7 µM | – | – | 4.3897 | 5.8565 | 3.5706 | 4.1984 | cytotoxic |
